Patent US9975918B2 (Van Andel Research Institute, priority 2013, dated 2018)
Where a chain is given by its changes, count along the chain named. Values belong to the molecule of their own block, whether it stands above or below them.

How the values were obtained:
[1] = when used at high concentration; cited from earlier work
[2] = system: GR Q642 mutations (Q642A, Q642F, Q642E, Q642K); assay: MMTV-Luc transactivation assay with the other Q642 mutations; type: cell-based; details: MF 1 nM, DEX 10 nM
GR [3] = target: T1, GR (Homo sapiens, UniProt P04150); assay: MMTV-Luc transactivation (induction) reporter assay in AD293 cells; type: cell-based; details: for potency for GR, in words: compounds without 17α furoate; for effect of the 17α furoate on potency and efficacy, in words: relative to the corresponding compound without 17α furoate; for potency compared with reference glucocorticoids, in words: MMTV-Luc, AD293 cells
T1 construct: expressed in transfected cells; host or cells: AD293 cells
T1 sequence (P04150 1-777): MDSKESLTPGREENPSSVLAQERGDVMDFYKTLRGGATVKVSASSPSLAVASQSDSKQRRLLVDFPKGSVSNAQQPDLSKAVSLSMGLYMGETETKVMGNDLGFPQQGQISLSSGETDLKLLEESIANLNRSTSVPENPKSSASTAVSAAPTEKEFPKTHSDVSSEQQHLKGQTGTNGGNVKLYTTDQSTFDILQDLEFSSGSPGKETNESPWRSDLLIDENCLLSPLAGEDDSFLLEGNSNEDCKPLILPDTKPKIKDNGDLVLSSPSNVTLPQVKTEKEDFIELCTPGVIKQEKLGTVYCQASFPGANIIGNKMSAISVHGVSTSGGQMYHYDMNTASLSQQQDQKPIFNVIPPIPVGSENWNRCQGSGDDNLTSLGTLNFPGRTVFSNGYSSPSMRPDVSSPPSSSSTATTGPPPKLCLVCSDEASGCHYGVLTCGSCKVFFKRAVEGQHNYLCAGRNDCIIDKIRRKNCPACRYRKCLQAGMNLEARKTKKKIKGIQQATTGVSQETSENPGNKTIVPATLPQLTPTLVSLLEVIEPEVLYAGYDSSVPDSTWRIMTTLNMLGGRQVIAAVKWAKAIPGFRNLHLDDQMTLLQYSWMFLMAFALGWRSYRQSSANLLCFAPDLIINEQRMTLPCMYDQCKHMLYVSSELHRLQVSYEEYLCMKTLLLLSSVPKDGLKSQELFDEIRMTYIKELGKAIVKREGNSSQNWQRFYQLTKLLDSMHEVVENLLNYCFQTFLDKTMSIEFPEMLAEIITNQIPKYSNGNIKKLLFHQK

GR Q642N = target: T2, GR Q642N (Homo sapiens, UniProt P04150, Q642N); assay: MMTV-Luc transactivation assay with Q642N mutant; type: cell-based; details: compared with wild type; up to saturation concentration
T2 construct: expressed in transfected cells; host or cells: AD293 cells
T2 sequence (P04150 1-777 Q642N): T1 sequence (P04150 1-777) with Q642N
Description: AD293 cells were split at 20,000/well in 24 well plate one day before transfection. For transactivation, 100 ng pHHLuc (MMTV-Luc) plasmid, 0.1 ng pRShGR together with 5 ng phRGtkRenilla were transfected by X-tremeGENE 9 (Roche) into AD293 cells per well. For transreperssion, 10 ng AP1-Luc, 100 ng pRShGR and 5 ng phRGtkRenilla were transfected into AD293 cells per well. One day after transfection, cells were induced by different treatment (steroids or vehicle) 16 hrs overnight.

GR [4] = target: T1, GR; assay: AP1-Luc transrepression reporter assay in AD293 cells; type: cell-based

SMILES: CC1=C[C@@H]2[C@H]([C@@H](O)C[C@@]3(C)[C@H]2C[C@@H](C)[C@]3(O)C(=O)CO)[C@@]2(C)Cc3cnn(-c4ccccc4)c3C=C12 [DAC, deacylcortivazol]
cytotoxicity, in words [1]: strong cytotoxicity

SMILES: C[C@@H]1C[C@H]2[C@@H]3CCC4=CC(=O)C=C[C@]4(C)[C@@]3(Cl)[C@@H](O)C[C@]2(C)[C@@]1(OC(=O)c1ccco1)C(=O)CCl [MF, Mometasone Furoate]
transactivation activity at sub-saturated concentration, in words [2]: loss of most of the activity

SMILES: CCNC(=O)[C@@]1(O)CCC2C3CCC4=Cc5c(cnn5-c5cccc(C(=O)NCc6ccccc6)c5)C[C@]4(C)C3[C@@H](O)C[C@@]21C (some centres unmarked) [VSG02]
potency for GR, in words (GR [3]): relatively low potency

SMILES: CCCNC(=O)[C@@]1(O)CCC2C3CCC4=Cc5c(cnn5-c5cccc(C(=O)NCc6ccccc6)c5)C[C@]4(C)C3[C@@H](O)C[C@@]21C (some centres unmarked) [VSG03]
potency for GR, in words (GR [3]): relatively low potency

SMILES: CCNC(=O)[C@@]1(OC(=O)c2ccco2)CCC2C3CCC4=Cc5c(cnn5-c5cccc(C(=O)NCc6ccccc6)c5)C[C@]4(C)C3[C@@H](O)C[C@@]21C (some centres unmarked) [VSG10]
effect of the 17α furoate on potency and efficacy, in words (GR [3]): greatly increased both GR potency and efficacy

SMILES: CCCNC(=O)[C@@]1(OC(=O)c2ccco2)CCC2C3CCC4=Cc5c(cnn5-c5cccc(C(=O)NCc6ccccc6)c5)C[C@]4(C)C3[C@@H](O)C[C@@]21C (some centres unmarked) [VSG11]
effect of the 17α furoate on potency and efficacy, in words (GR [3]): greatly increased both GR potency and efficacy

SMILES: C[C@]12Cc3cnn(-c4cccc(C(=O)NCc5ccccc5)c4)c3C=C1CCC1C2[C@@H](O)C[C@@]2(C)C1CC[C@]2(OC(=O)c1ccco1)C(=O)NCc1ccccc1 (some centres unmarked) [VSG14]
effect of the 17α furoate on potency and efficacy, in words (GR [3]): greatly increased both GR potency and efficacy

SMILES: CCC(=O)O[C@]1(C(=O)NCc2ccccc2)CCC2C3CCC4=Cc5c(cnn5-c5cccc(C(=O)NCc6ccccc6)c5)C[C@]4(C)C3[C@@H](O)C[C@@]21C (some centres unmarked) [VSG15]
potency for GR, in words (GR [3]): relatively low potency

SMILES: CON(C)C(=O)[C@@]1(OC(=O)c2ccco2)CCC2C3CCC4=Cc5c(cnn5-c5ccccc5)C[C@]4(C)C3[C@@H](O)C[C@@]21C (some centres unmarked) [VSG22]
potency compared with reference glucocorticoids, in words (GR [3]): slightly weaker than MF
EC50 change on replacement of the 17α hydroxyl group by a furoate ester (GR [3]; VSG22 vs VSG24): greater than 1000 fold
effect of the 17α furoate on potency and efficacy, in words (GR [3]): greatly increased both potency and efficacy

SMILES: CON(C)C(=O)[C@@]1(OC(=O)c2ccco2)CCC2C3CCC4=Cc5c(cnn5-c5ccccc5)C[C@]4(C)C3[C@@H](O)C[C@@]21C (some centres unmarked) [VSG24F]
potency compared with reference glucocorticoids, in words (GR [3]): better than those of DEX and DAC

SMILES: CON(C)C(=O)[C@@]1(O)CCC2C3CCC4=Cc5c(cnn5-c5ccccc5)C[C@]4(C)C3[C@@H](O)C[C@@]21C (some centres unmarked) [VSG24]
activity in the MMTV reporter assay, in words (GR [3]): almost no activity

full dose-response curve of Q642N, in words (GR Q642N): inactive
potency compared with DEX, transrepression, in words (GR [4]): much weaker than DEX
efficacy as % of the efficacy of DEX, transactivation (GR [3]; at its saturation concentration (10 μM)): 80%
SMILES: C[C@]12CCC(=O)C=C1CC[C@@H]1[C@@H]2[C@@H](O)C[C@@]2(C)[C@H]1CC[C@]2(O)C(=O)CO [cortisol, Cortisol]

leftward shift of the cortisol dose-response curve (GR [3]; transactivation, relative to cortisol): about 5 fold
SMILES: C[C@]12C=CC(=O)C=C1CC[C@@H]1[C@@H]2[C@@H](O)C[C@@]2(C)[C@H]1CC[C@]2(O)C(=O)CO [prednisolone, reference compound]
